The results in this text go back to patent US9512175B2, “Macrocyclic inhibitors of flaviviridae viruses” (Gilead Sciences, Inc., priority 2012, dated 2016).

The test system of test [1] is HCV replicon (Replicon 1a). Briefly: anti-HCV activity in Huh-7 cell line harboring a HCV replicon (Replicon 1a). Conditions: human hepatoma Huh-7 HCV replicon cells, 3 days, luciferase readout; for inhibition at 1 µM: Hepatitis C virus, Huh-7, 72 h, read-out: Replicon 1a % inhibition at 1 μM, 1 μM. The test is classed as cell-based.
The target of the next test is cyclophilin A (Homo sapiens, UniProt P62937). Briefly: Cyclophilin A TR-FRET competitive binding assay. Conditions: IC50 ranges; competition with CsA-Cy5 for His-tagged CypA, two-hour incubation; read-out: TR-FRET. How it is done:
Cyclophilin A TR-FRET Competitive Binding Assay
Inhibitor potency was measured using a competitive binding assay with a time-resolved fluorescence resonance energy transfer (TR-FRET) readout. […] An IC50 value was calculated using a four-parameter logistic fit.
For orientation: TR-FRET usually uses a lanthanide donor and a delayed reading to cut background.

cyclophilin A, sequence (P62937 whole entry, species assumed): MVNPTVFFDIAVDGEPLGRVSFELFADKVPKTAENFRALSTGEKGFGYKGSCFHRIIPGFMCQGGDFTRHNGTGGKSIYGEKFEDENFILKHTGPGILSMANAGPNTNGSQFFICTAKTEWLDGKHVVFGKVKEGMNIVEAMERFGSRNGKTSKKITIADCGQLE

In the case of `CC(C)[C@@H]1NC(=O)C/C=C/c2ccc3ncc(cc3c2)[C@@H](C)OC(=O)[C@@H]2CCCN(N2)C(=O)[C@H](C)NC1=O` [Compound 14], the inhibition (usually the change of the read-out against control, counted positive when it falls) at 1 µM in test [1] came out at 94%. Also, the IC50 at cyclophilin A is < 100 nM. Taken in the same sequence, the figures for `CC(C)[C@H](N)C(=O)O[C@@H](C)[C@H]1/C=C/c2ccc3ccc(nc3c2)[C@@H](C)OC(=O)[C@@H]2CCCN(N2)C(=O)[C@H](C)NC(=O)[C@H](C(C)C)NC1=O` [Compound 167] were 97% and < 100 nM.

As for `CC(C)[C@@H]1NC(=O)C/C=C/c2cc3cc(ccc3cn2)[C@@H](C(F)(F)F)NC(=O)[C@@H]2CCCN(N2)C(=O)[C@H](C)NC1=O` [Compound 23], the inhibition at 1 µM in test [1] came to 99%. Moreover, at cyclophilin A, the IC50 was < 100 nM.

Consider `CC(C)C(=O)O[C@@H](C)[C@H]1/C=C/c2ccc3ccc(nc3c2)[C@@H](C)OC(=O)[C@@H]2CCCN(N2)C(=O)[C@H](C)NC(=O)[C@H](C(C)C)NC1=O` [Compound 165], for which the inhibition at 1 µM in test [1] came to 100%. For the same compound, the IC50 at cyclophilin A was < 100 nM. Taken in the same sequence, the figures for `CC(C)[C@@H]1NC(=O)C2(/C=C/c3ccc4ccc(nc4c3)[C@@H](C)OC(=O)[C@@H]3CCCN(N3)C(=O)[C@H](C)NC1=O)COC2` [Compound 73] were 94% and < 100 nM. Taken in the same sequence, the figures for `CCCC(=O)O[C@@H](C)[C@H]1/C=C/c2ccc3ccc(nc3c2)[C@@H](C)OC(=O)[C@@H]2CCCN(N2)C(=O)[C@H](C)NC(=O)[C@H](C(C)C)NC1=O` [Compound 172] were 100% and < 100 nM. For `CC(C)[C@@H]1NC(=O)C2(/C=C/c3ccc4ccc(nc4c3)[C@@H](C)OC(=O)[C@@H]3CCCN(N3)C(=O)[C@H](C)NC1=O)CCN(S(C)(=O)=O)CC2` [Compound 130], in that order: 100% and < 100 nM.

Turning to `C[C@@H]1NC(=O)[C@H](CCc2ccccc2)NC(=O)C/C=C/c2cc3cc(ccc3cn2)[C@@H](C)OC(=O)[C@@H]2CCCN(N2)C1=O` [Compound 56], in test [1], the inhibition at 1 µM worked out at 47%. The IC50 at cyclophilin A is 101 to 1000 nM. With `COC1CCC=Cc2cccc(c2)C2CCCCN2C(=O)C2CCCN(N2)C(=O)C(C)NC(=O)C(C(C)C)NC(=O)C1C` (single isomer, unassigned) [Compound 30], the “Replicon 1a % inhibition at 1 μM” value in test [1] (1 μM) is given as 73%. The IC50 at cyclophilin A is < 100 nM. For `COCc1cc2ccc3cc2nc1[C@@H](C)OC(=O)[C@@H]1CCCN(N1)C(=O)[C@H](C)NC(=O)[C@H](C(C)C)NC(=O)C(C)(C)/C=C/3` [Compound 137], the inhibition at 1 µM in test [1] worked out at 100%. Moreover, the IC50 on cyclophilin A was < 100 nM. `CC(C)[C@@H]1NC(=O)C(C)(C)/C=C/c2ccc3c(C#N)cc(nc3c2)[C@@H](C)OC(=O)[C@@H]2CCCN(N2)C(=O)[C@H](C)NC1=O` [Compound 140]: the IC50 on cyclophilin A lay in the range of 101 to 1000 nM.

With `CC[C@@H]1/C=C/c2cc3cc(ccc3cn2)[C@@H](C)OC(=O)[C@@H]2CCCN(N2)C(=O)[C@H](C)NC(=O)[C@H](C(C)C)NC1=O` [Compound 19], the inhibition at 1 µM in test [1] amounted to 97%. On cyclophilin A, the IC50 was < 100 nM. As to `CC(C)[C@@H]1NC(=O)CCCc2ccc3ccc(cc3c2)[C@@H](C)OC(=O)[C@@H]2CCCN(N2)C(=O)[C@H](C)NC1=O` [Compound 71], at cyclophilin A, the IC50 lay in the range of 101 to 1000 nM. As for `CC(C)[C@@H]1NC(=O)C2(/C=C/c3ccc4ccc(nc4c3)[C@@H](C)OC(=O)[C@@H]3CCCN(N3)C(=O)[C@H](C)NC1=O)CCN(Cc1ccccc1)CC2` [Compound 128], on cyclophilin A, the IC50 was < 100 nM. As to `CC(C)[C@@H]1NC(=O)CCCc2cc3cc(ccc3cn2)[C@@H](C)OC(=O)[C@@H]2CCCN(N2)C(=O)[C@H](C)NC1=O` [Compound 10], the inhibition at 1 µM in test [1] came to 28%.

With `C[C@@H]1NC(=O)[C@H](CCN=[N+]=[N-])NC(=O)C(C)(C)/C=C/c2cc3cc(ccc3cn2)[C@@H](C)OC(=O)[C@@H]2CCCN(N2)C1=O` [Compound 49], the IC50 at cyclophilin A is < 100 nM.

`CC(C)[C@@H]1NC(=O)C(C)(C)CCc2cc3cc(ccc3cn2)[C@@H](C)OC(=O)[C@@H]2CCCN(N2)C(=O)[C@H](C)NC1=O` [Compound 74]: in test [1], the inhibition at 1 µM worked out at 95%.

`CC(C)[C@@H]1NC(=O)C(C)(C(C)O)/C=C/c2ccc3ccc(nc3c2)[C@@H](C)OC(=O)[C@@H]2CCCN(N2)C(=O)[C@H](C)NC1=O` (single isomer, unassigned) [Compound 87]: the IC50 at cyclophilin A was < 100 nM. On the same count and under the same terms, in the case of `Cc1c2ccc3c(Cl)cc(nc13)[C@@H](C)OC(=O)[C@@H]1CCCN(N1)C(=O)[C@H](C)NC(=O)[C@H](C(C)C)NC(=O)C(C)(C)/C=C/2` [Compound 164] it was < 100 nM.

For the compound `CC(C)[C@@H]1NC(=O)/C=C\c2cc3cc(ccc3cn2)[C@@H](C)NC(=O)[C@@H]2CCCN(N2)C(=O)[C@H](C)NC1=O` [Compound 12], in test [1], the inhibition at 1 µM is 0%. As for `CC(C)[C@@H]1NC(=O)C2(/C=C/c3ccc4ccc(nc4c3)[C@@H](C)OC(=O)[C@@H]3CCCN(N3)C(=O)[C@H](C)NC1=O)COC(C)(C)OC2` [Compound 75], the IC50 at cyclophilin A was < 100 nM. With `C#CC[C@@H]1NC(=O)C(C)(C)/C=C/c2cc3cc(ccc3cn2)[C@@H](C)OC(=O)[C@@H]2CCCN(N2)C(=O)[C@H](C)NC1=O` [Compound 51], the IC50 at cyclophilin A is < 100 nM. For the compound `CC(C)[C@@H]1NC(=O)C(C)(C)/C=C/c2cc3cc(cnc3cn2)[C@@H](C)OC(=O)[C@@H]2CCCN(N2)C(=O)[C@H](C)NC1=O` [Compound 66], the IC50 on cyclophilin A was < 100 nM.

Regarding `CC(C)[C@@H]1NC(=O)C2(/C=C/c3cc4cc(ccc4cn3)[C@@H](C)OC(=O)[C@@H]3CCCN(N3)C(=O)[C@H](C)NC1=O)CC2` [Compound 58], the IC50 on cyclophilin A is < 100 nM.

As to `CC(C)[C@@H]1NC(=O)C/C=C/c2ccc3ccc(nc3c2)[C@@H](C)OC(=O)[C@@H]2CCCN(N2)C(=O)[C@H](C)NC1=O` [Compound 24], the inhibition at 1 µM in test [1] came to 99%.

In the case of `CC(C)[C@@H]1NC(=O)CCCC/C=C/c2cc3cc(ccc3cn2)[C@@H](C)OC(=O)[C@@H]2CCCN(N2)C(=O)[C@H](C)NC1=O` [Compound 63], in test [1], the inhibition at 1 µM was found to be 80%. Consider `COc1cc2nc3cc(ccc13)/C=C/C(C)(C)C(=O)N[C@@H](C(C)C)C(=O)N[C@@H](C)C(=O)N1CCC[C@H](N1)C(=O)O[C@@H]2C` [Compound 139], for which the IC50 at cyclophilin A was < 100 nM. Regarding `CC(C)[C@@H]1NC(=O)CCC/C=C/c2cc3cc(ccc3cn2)[C@@H](C)OC(=O)[C@@H]2CCCN(N2)C(=O)[C@H](C)NC1=O` [Compound 61], in test [1], the inhibition at 1 µM stood at 72%.

For `CC(C)[C@@H]1NC(=O)C2(/C=C/c3ccc4ccc(nc4c3)[C@@H](C)OC(=O)[C@@H]3CCCN(N3)C(=O)[C@H](C)NC1=O)CCC(F)(F)CC2` [Compound 121], the IC50 on cyclophilin A was < 100 nM. For `CC(C)[C@@H]1NC(=O)[C@@H]([C@H](C)O)/C=C/c2ccc3ccc(nc3c2)[C@@H](C)OC(=O)[C@@H]2CCCN(N2)C(=O)[C@H](C)NC1=O` [Compound 31], the inhibition at 1 µM in test [1] amounted to 98%. For `CC(C)[C@@H]1NC(=O)C(C)(C2CCOC2)/C=C/c2ccc3ccc(nc3c2)[C@@H](C)OC(=O)[C@@H]2CCCN(N2)C(=O)[C@H](C)NC1=O` (some centres unmarked) [Compound 116], the IC50 at cyclophilin A is < 100 nM. Still for that read-out and setting: in the case of `CC(C)[C@@H]1NC(=O)C2(/C=C/c3cc4cc(ccc4cn3)[C@@H](C)OC(=O)[C@@H]3CCCN(N3)C(=O)[C@H](C)NC1=O)CCOCC2` [Compound 59] it was < 100 nM.

As for `CC(C)[C@@H]1NC(=O)C([C@H](C)O)/C=C/c2ccc3ccc(cc3c2)[C@@H](C)OC(=O)[C@@H]2CCCN(N2)C(=O)[C@@H](C)NC1=O` (some centres unmarked) [Compound 145], on cyclophilin A, the IC50 was < 100 nM.
